{"source": "patent US20060159639A1", "about": "“Pseudo body odor composition and perfume composition for inhibiting body odor” (priority 2003, published 2006)"}
{"test": "Suppression test of Experimental Example 1: masking and harmonizing effect in a cup, four expert panelists;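 as to harmonizing: score 1 means in harmony 0 indefinite and −1 not in harmony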", "conditions": "not given", "procedure": "(§1) In the present invention, the selection of the above component (I), component (II) and component (III) was carried out as follows. That is, one of the pseudo body odor compositions mentioned above and a target fragrance component were mixed and left at room temperature for 30 minutes. Thereafter, evaluations of the masking and harmonizing effects to the acid odor were carried out by four expert panelists.\n(§2) After 30 minutes, a hole of about 1 cm in diameter was formed in the aluminum foil and the investigations of masking effect and the harmonizing effect were carried out according to following evaluation criteria by four expert panelists.\n(§3) 3: Excellent in the masking.\n(§4) 2: Substantially excellent in the masking.\n(§5) 1: Slightly sensible of the body odor (sweat odor and armpit odor).\n(§6) 0: Sensible of the body odor (sweat odor and armpit odor) (insufficient in the masking)"}
{"smiles": "CCCCCCCC1CCC(=O)O1", "note": "(centres unmarked) [γ-Undecalactone]", "Harmonizing": 1}
{"smiles": "COc1ccc2ccccc2c1", "note": "[β-Naphthol methyl ether]", "Harmonizing": 1}
{"test": "Suppression test of Experimental Example 1: masking and harmonizing effect in a cup, four expert panelists;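 as to harmonizing: score 1 means in harmony 0 indefinite and −1 not in harmony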", "conditions": "200 μl pseudo body odor composition of Example 4 and 10 μl perfume on filter papers in sealed about 500 ml cup, after 30 minutes, four expert panelists, scale 0-3", "procedure": "as §1, §2, §3, §4, §5, §6"}
{"smiles": "CCOC(=O)CC1(C)OCCO1", "note": "[Fraistone, ethyl (2-methyl-[1,3]dioxolane-2-yl) acetate]", "Masking": 1}
{"smiles": "O=Cc1ccc2c(c1)OCO2", "note": "[Heliotropine]", "Masking": "1.5 points"}
{"smiles": "CCC(=O)OC1CC2CC1C1CC=CC21", "note": "(centres unmarked) [Cyclaprop, tricyclodecenyl propionate]", "Masking": 1}
{"smiles": "COc1ccc(COC(C)=O)cc1", "note": "[Anisyl acetate]", "Masking": "1.5 points"}
{"smiles": "CCOC(=O)C(C)CC", "note": "(centres unmarked) [Ethyl-2-methyl butylate]", "Masking": 3}
{"smiles": "C=CC(C)(O)CCC=C(C)CC", "note": "(mixture of isomers) [Ethyl linalool]", "Masking": "1.5 points"}
{"smiles": "CC(C)=CCCC(C)CCCC(C)C=O", "note": "(centres unmarked) [2,6,10-Trimethyl-9-undecenal]", "Masking": 1}
{"test": "Suppression test of Experimental Example 1: masking and harmonizing effect in a cup, four expert panelists;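 as to harmonizing: score 1 means in harmony 0 indefinite and −1 not in harmony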", "conditions": "200 μl pseudo body odor composition of Example 4 and 10 μl perfume on filter papers in sealed about 500 ml cup, after 30 minutes, four expert panelists, scale −1 to 1", "procedure": "as §1, §2, §3, §4, §5, §6"}
{"smiles": "CCOC(=O)CC1(C)OCCO1", "note": "[Fraistone, ethyl (2-methyl-[1,3]dioxolane-2-yl) acetate]", "Harmonizing": "−1"}
{"smiles": "O=Cc1ccc2c(c1)OCO2", "note": "[Heliotropine]", "Harmonizing": 0}
{"smiles": "CCC(=O)OC1CC2CC1C1CC=CC21", "note": "(centres unmarked) [Cyclaprop, tricyclodecenyl propionate]", "Harmonizing": "−1"}
{"smiles": "COc1ccc(COC(C)=O)cc1", "note": "[Anisyl acetate]", "Harmonizing": 0}
{"smiles": "CCOC(=O)C(C)CC", "note": "(centres unmarked) [Ethyl-2-methyl butylate]", "Harmonizing": 1}
{"smiles": "CC(C=O)Cc1ccc(C(C)(C)C)cc1", "note": "(stereo not drawn) [Lilial, p-tert-butyl-α-methyl hydrocinnamic aldehyde]", "Harmonizing": 0}
{"smiles": "C=CC(C)(O)CCC=C(C)CC", "note": "(mixture of isomers) [Ethyl linalool]", "Harmonizing": 0}
{"smiles": "CC(C)=CCCC(C)CCCC(C)C=O", "note": "(centres unmarked) [2,6,10-Trimethyl-9-undecenal]", "Harmonizing": "−1"}
